The test system of this experiment is Normal Human dermal fibroblasts. The experiment can be described thus: Procollagen assay (Procollagen Type-I C-Peptide EIA) in conditioned media of treated fibroblasts. The class given is cell-based. As to conditions: 0.0005% compound, 48 hours, ELISA, p<0.05. As to the method:
Normal Human dermal fibroblasts were grown in DMEM (Mediatech; cat. #: 15-013-CV) containing 10% Fetal Bovine Serum (Perbio; cat. #: SH30070.03), Penicillin/Streptomycin (Mediatech, Cat #30-001-C1), L-Glutamine (Mediatech; cat. #: 25-005-CI) at 37° C. and 10% CO2. Cells were stripped of serum overnight, followed by treatment with the compound of Formula I(b) (0.0005%) or vehicle (DMSO), in the absence of serum for 48 hours.
Reading was measured at 450 nm using a spectrophotometer.
Human dermal fibroblasts treated with 0.0005% the compound of Formula I(b) for 48 hours were analyzed by ELISA for expression levels of pro-collagen. […] All values are statistically significant at p<0.05.
(In general: An ELISA detects its analyte on a solid surface through an enzyme-linked reagent.)

Regarding `N#Cc1cccc(CN2CCNC(=O)CC2c2nccs2)c1` (centres unmarked) [Formula I(b)], the “pro-collagen expression level relative to control, vehicle treated cells” value is given as “significant increase”. The Procollagen (serum-free, relative to vehicle (DMSO) control = 100%, 450 nm) is listed as 146%.

The record behind these values is patent publication US8865700B2, “Collagen stimulators and their use in the treatment of skin” (Avon Products, Inc., priority 2012, dated 2014).
